Laboratory results as given in patent US12077503B2, “Substituted cyclic amides and their use as herbicides” (FMC CORPORATION, priority 2015, dated 2024).

What was measured:
Assay type in all cases: in vivo
[1] = system: redroot pigweed (Amaranthus retroflexus); assay: Test G Pre-Emergence Protocol; details: Amaranthus retroflexus, pre-emergence, 312 h, evaluated after 13 days; for pest or weed control at 15.625 g/ha: 15.625 g ai/ha; for pest or weed control at 15.625 g/ha / pest or weed control at 250 g/ha: read-out: Pigweed, Redroot damage rating (100=total damage to plant; 0=no damage to plant); for pest or weed control at 62.5 g/ha: 62.5 g ai/ha, 100=total damage to plant, 0=no damage to plant, read-out: Pigweed, Redroot damage rating; for pest or weed control at 250 g/ha: 250 g ai/ha
Method in brief: (§1)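 Visual injury (0–100) at day 13 after a single pre-emergence spray. Rates: 15.625, 62.5, 250 g/ha in acetone–water 50:50 with 0.5% Tween 20. Growth conditions: 24/16° C, 14 h light, 65% humidity.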

[2] = system: ivy-leaved morning glory (Ipomoea hederacea); assay: Test G Pre-Emergence Protocol; details: Ipomoea, pre-emergence, 312 h, evaluated after 13 days; for pest or weed control at 15.625 g/ha: 15.625 g ai/ha; for pest or weed control at 15.625 g/ha / pest or weed control at 250 g/ha: read-out: Morningglory, Ivy-leaved damage rating (100=total damage to plant; 0=no damage to plant); for pest or weed control at 62.5 g/ha: 62.5 g ai/ha, 100=total damage to plant, 0=no damage to plant, read-out: Morningglory, Ivy-leaved damage rating; for pest or weed control at 250 g/ha: 250 g ai/ha
Method in brief: as §1

[3] = system: giant foxtail (Setaria faberi); assay: Test G Pre-Emergence Protocol; details: Setaria faberi, pre-emergence, 312 h, evaluated after 13 days; for pest or weed control at 15.625 g/ha: 15.625 g ai/ha; for pest or weed control at 15.625 g/ha / pest or weed control at 250 g/ha: read-out: Foxtail, Giant damage rating (100=total damage to plant; 0=no damage to plant); for pest or weed control at 62.5 g/ha: 62.5 g ai/ha, 100=total damage to plant, 0=no damage to plant, read-out: Foxtail, Giant damage rating; for pest or weed control at 250 g/ha: 250 g ai/ha
Method in brief: as §1

[4] = system: velvetleaf (Abutilon theophrasti); assay: Test G Pre-Emergence Protocol; details: Abutilon theophrasti, pre-emergence, 312 h, evaluated after 13 days; for pest or weed control at 15.625 g/ha: 15.625 g ai/ha; for pest or weed control at 15.625 g/ha / pest or weed control at 250 g/ha: read-out: Velvetleaf damage rating (100=total damage to plant; 0=no damage to plant); for pest or weed control at 62.5 g/ha: 62.5 g ai/ha, 100=total damage to plant, 0=no damage to plant, read-out: Velvetleaf damage rating; for pest or weed control at 250 g/ha: 250 g ai/ha
Method in brief: as §1

[5] = system: barnyardgrass (Echinochloa crus-galli); assay: Test G Pre-Emergence Protocol; details: Echinochloa crus-galli, pre-emergence, 312 h, evaluated after 13 days; for pest or weed control at 15.625 g/ha: 15.625 g ai/ha; for pest or weed control at 15.625 g/ha / pest or weed control at 250 g/ha: read-out: Barnyardgrass damage rating (100=total damage to plant; 0=no damage to plant); for pest or weed control at 62.5 g/ha: 62.5 g ai/ha, 100=total damage to plant, 0=no damage to plant, read-out: Barnyardgrass damage rating; for pest or weed control at 250 g/ha: 250 g ai/ha
Method in brief: as §1

corn (Zea mays) [6] = assay: Test G Pre-Emergence Protocol; details: Zea mays, pre-emergence, 312 h, evaluated after 13 days; for plant injury at 15.625 g/ha: 15.625 g ai/ha; for plant injury at 15.625 g/ha / plant injury at 250 g/ha: read-out: Corn damage rating (100=total damage to plant; 0=no damage to plant); for plant injury at 62.5 g/ha: 62.5 g ai/ha, 100=total damage to plant, 0=no damage to plant, read-out: Corn damage rating; for plant injury at 250 g/ha: 250 g ai/ha
Method in brief: as §1

[7] = system: redroot pigweed (Amaranthus retroflexus); assay: Test G Post-Emergence Protocol; details: Amaranthus retroflexus, post-emergence, 312 h, read-out: Pigweed, Redroot damage rating; for pest or weed control at 15.625 g/ha: 15.625 g ai/ha, evaluated after 13 days (100=total damage to plant; 0=no damage to plant); for pest or weed control at 62.5 g/ha: 62.5 g ai/ha; for pest or weed control at 62.5 g/ha / pest or weed control at 250 g/ha: evaluated after 13 days, 100=total damage to plant, 0=no damage to plant; for pest or weed control at 250 g/ha: 250 g ai/ha
Method in brief: (§2)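 Seedlings grown 8 days in soil in a glasshouse (24/16 °C day/night, 14 h light, 65% humidity) were sprayed post-emergence with compound in acetone/water 50:50 plus 0.5% Tween 20 at 15.625, 62.5 or 250 g/ha. Damage was scored after 13 days on a 0–100 scale (100 = total damage).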

[8] = system: ivy-leaved morning glory (Ipomoea hederacea); assay: Test G Post-Emergence Protocol; details: Ipomoea, post-emergence, 312 h, read-out: Morningglory, Ivy-leaved damage rating; for pest or weed control at 15.625 g/ha: 15.625 g ai/ha, evaluated after 13 days (100=total damage to plant; 0=no damage to plant); for pest or weed control at 62.5 g/ha: 62.5 g ai/ha; for pest or weed control at 62.5 g/ha / pest or weed control at 250 g/ha: evaluated after 13 days, 100=total damage to plant, 0=no damage to plant; for pest or weed control at 250 g/ha: 250 g ai/ha
Method in brief: as §2

[9] = system: giant foxtail (Setaria faberi); assay: Test G Post-Emergence Protocol; details: Setaria faberi, post-emergence, 312 h, read-out: Foxtail, Giant damage rating; for pest or weed control at 15.625 g/ha: 15.625 g ai/ha, evaluated after 13 days (100=total damage to plant; 0=no damage to plant); for pest or weed control at 62.5 g/ha: 62.5 g ai/ha; for pest or weed control at 62.5 g/ha / pest or weed control at 250 g/ha: evaluated after 13 days, 100=total damage to plant, 0=no damage to plant; for pest or weed control at 250 g/ha: 250 g ai/ha
Method in brief: as §2

[10] = system: velvetleaf (Abutilon theophrasti); assay: Test G Post-Emergence Protocol; details: Abutilon theophrasti, post-emergence, 312 h, read-out: Velvetleaf damage rating; for pest or weed control at 15.625 g/ha: 15.625 g ai/ha, evaluated after 13 days (100=total damage to plant; 0=no damage to plant); for pest or weed control at 62.5 g/ha: 62.5 g ai/ha; for pest or weed control at 62.5 g/ha / pest or weed control at 250 g/ha: evaluated after 13 days, 100=total damage to plant, 0=no damage to plant; for pest or weed control at 250 g/ha: 250 g ai/ha
Method in brief: as §2

[11] = system: barnyardgrass (Echinochloa crus-galli); assay: Test G Post-Emergence Protocol; details: Echinochloa crus-galli, post-emergence, 312 h, read-out: Barnyardgrass damage rating; for pest or weed control at 15.625 g/ha: 15.625 g ai/ha, evaluated after 13 days (100=total damage to plant; 0=no damage to plant); for pest or weed control at 62.5 g/ha: 62.5 g ai/ha; for pest or weed control at 62.5 g/ha / pest or weed control at 250 g/ha: evaluated after 13 days, 100=total damage to plant, 0=no damage to plant; for pest or weed control at 250 g/ha: 250 g ai/ha
Method in brief: as §2

corn (Zea mays) [12] = assay: Test G Post-Emergence Protocol; details: Zea mays, post-emergence, 312 h, read-out: Corn damage rating; for plant injury at 15.625 g/ha: 15.625 g ai/ha, evaluated after 13 days (100=total damage to plant; 0=no damage to plant); for plant injury at 62.5 g/ha: 62.5 g ai/ha; for plant injury at 62.5 g/ha / plant injury at 250 g/ha: evaluated after 13 days, 100=total damage to plant, 0=no damage to plant; for plant injury at 250 g/ha: 250 g ai/ha
Method in brief: as §2

Row | SMILES | pest or weed control at 15.625 g/ha [1] [%] | pest or weed control at 62.5 g/ha [1] [%] | pest or weed control at 250 g/ha [1] [%] | pest or weed control at 15.625 g/ha [2] [%] | pest or weed control at 62.5 g/ha [2] [%] | pest or weed control at 250 g/ha [2] [%] | pest or weed control at 15.625 g/ha [3] [%] | pest or weed control at 62.5 g/ha [3] [%] | pest or weed control at 250 g/ha [3] [%] | pest or weed control at 15.625 g/ha [4] [%] | pest or weed control at 62.5 g/ha [4] [%] | pest or weed control at 250 g/ha [4] [%] | pest or weed control at 15.625 g/ha [5] [%] | pest or weed control at 62.5 g/ha [5] [%] | pest or weed control at 250 g/ha [5] [%] | plant injury at 15.625 g/ha (corn (Zea mays) [6]) [%] | plant injury at 62.5 g/ha (corn (Zea mays) [6]) [%] | plant injury at 250 g/ha (corn (Zea mays) [6]) [%] | pest or weed control at 15.625 g/ha [7] [%] | pest or weed control at 62.5 g/ha [7] [%] | further results
1 | CCOc1ccc(C2CN(C)C(=O)C2C(=O)Nc2cccc(F)c2F)cc1OCC (stereo not drawn) [Compound 1716] | 0 | 10 | 10 | 0 | 0 | 0 | 30 | 90 | 90 | 0 | 10 | 10 | 0 | 80 | 90 | 0 | 0 | 60 | 0 | 0 | pest or weed control at 250 g/ha [7]: 0%; pest or weed control at 15.625 g/ha [8]: 0%; pest or weed control at 62.5 g/ha [8]: 0%; pest or weed control at 250 g/ha [8]: 10%; pest or weed control at 15.625 g/ha [9]: 40%; pest or weed control at 62.5 g/ha [9]: 70%; pest or weed control at 250 g/ha [9]: 80%; pest or weed control at 15.625 g/ha [10]: 0%; pest or weed control at 62.5 g/ha [10]: 0%; pest or weed control at 250 g/ha [10]: 0%; pest or weed control at 15.625 g/ha [11]: 0%; pest or weed control at 62.5 g/ha [11]: 60%; pest or weed control at 250 g/ha [11]: 80%; plant injury at 15.625 g/ha (corn (Zea mays) [12]): 0%; plant injury at 62.5 g/ha (corn (Zea mays) [12]): 10%; plant injury at 250 g/ha (corn (Zea mays) [12]): 60%
2 | CN1CC(c2ccc(F)c(OCC(F)(F)F)c2)C(C(=O)Nc2cccc(F)c2F)C1=O (stereo not drawn) [Compound 1718] | 0 | 0 | 60 | 0 | 0 | 10 | 60 | 80 | 90 | 0 | 0 | 50 | 60 | 70 | 90 | 0 | 50 | 80 | 30 | 40 | pest or weed control at 250 g/ha [7]: 70%; pest or weed control at 15.625 g/ha [8]: 10%; pest or weed control at 62.5 g/ha [8]: 60%; pest or weed control at 250 g/ha [8]: 70%; pest or weed control at 15.625 g/ha [9]: 70%; pest or weed control at 62.5 g/ha [9]: 80%; pest or weed control at 250 g/ha [9]: 80%; pest or weed control at 15.625 g/ha [10]: 20%; pest or weed control at 62.5 g/ha [10]: 40%; pest or weed control at 250 g/ha [10]: 60%; pest or weed control at 15.625 g/ha [11]: 50%; pest or weed control at 62.5 g/ha [11]: 70%; pest or weed control at 250 g/ha [11]: 80%; plant injury at 15.625 g/ha (corn (Zea mays) [12]): 30%; plant injury at 62.5 g/ha (corn (Zea mays) [12]): 50%; plant injury at 250 g/ha (corn (Zea mays) [12]): 80%
3 | Cc1cc(C2CN(C)C(=O)C2C(=O)Nc2cccc(F)c2F)cc(C(F)(F)F)c1 (stereo not drawn) [Compound 1723] | 0 | 0 | 30 | 0 | 0 | 10 | 60 | 70 | 90 | 0 | 0 | 10 | 10 | 40 | 90 | 0 | 0 | 60 | 20 | 20 | pest or weed control at 250 g/ha [7]: 30%; pest or weed control at 15.625 g/ha [8]: 30%; pest or weed control at 62.5 g/ha [8]: 70%; pest or weed control at 250 g/ha [8]: 40%; pest or weed control at 15.625 g/ha [9]: 70%; pest or weed control at 62.5 g/ha [9]: 80%; pest or weed control at 250 g/ha [9]: 80%; pest or weed control at 15.625 g/ha [10]: 10%; pest or weed control at 62.5 g/ha [10]: 10%; pest or weed control at 250 g/ha [10]: 20%; pest or weed control at 15.625 g/ha [11]: 30%; pest or weed control at 62.5 g/ha [11]: 80%; pest or weed control at 250 g/ha [11]: 80%; plant injury at 15.625 g/ha (corn (Zea mays) [12]): 30%; plant injury at 62.5 g/ha (corn (Zea mays) [12]): 60%; plant injury at 250 g/ha (corn (Zea mays) [12]): 70%
